From PubChem BioAssay AID248 (DTP/NCI, 2004)
Inconclusive results and toxic doses are left out. Rule as the data show it: active = T/C of 150% or more; inactive = T/C below 125%.

Tested on: L1210 leukemia ip in BDF1 mice, survival T/C
Assay: NCI In Vivo Anticancer Drug Screen. Data for tumor model L1210 Leukemia (intraperitoneal) in B6D2F1 (BDF1) mice
Details: endpoint: mean survival time, higher = longer survival
How it was run: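 Tumor cells were implanted, animals were treated, and survival was followed. The result divides the treated measurement by the vehicle-control measurement.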

[1] = dose: 1.25 mg/kg/injection, schedule: Q04DX003 (ip), vehicle: saline
[2] = dose: 2.5 mg/kg/injection, schedule: Q04DX003 (ip), vehicle: saline
[3] = dose: 5.0 mg/kg/injection, schedule: Q04DX003 (ip), vehicle: saline
[4] = dose: 100.0 mg/kg/injection, schedule: Q04DX002 (ip), vehicle: saline with Tween-80
[5] = dose: 200.0 mg/kg/injection, schedule: Q01DX009 (ip), vehicle: saline with Tween-80
[6] = dose: 400.0 mg/kg/injection, schedule: Q04DX002 (ip), vehicle: saline with Tween-80
[7] = dose: 100.0 mg/kg/injection, schedule: Q04DX003 (ip), vehicle: saline with Tween-80
[8] = dose: 200.0 mg/kg/injection, schedule: Q04DX003 (ip), vehicle: saline with Tween-80
[9] = dose: 100.0 mg/kg/injection, schedule: Q01DX001 (ip), vehicle: carboxymethylcellulose (CMC)
[10] = dose: 200.0 mg/kg/injection, schedule: Q01DX001 (ip), vehicle: carboxymethylcellulose (CMC)
[11] = dose: 400.0 mg/kg/injection, schedule: Q01DX001 (ip), vehicle: carboxymethylcellulose (CMC)
[12] = dose: 100.0 mg/kg/injection, schedule: Q01DX001 (ip), vehicle: saline
[13] = dose: 100.0 mg/kg/injection, schedule: Q01DX009 (ip), vehicle: Klucel (hydroxypropylcellulose) (HPC)
[14] = dose: 200.0 mg/kg/injection, schedule: Q01DX009 (ip), vehicle: Klucel (hydroxypropylcellulose) (HPC)
[15] = dose: 400.0 mg/kg/injection, schedule: Q01DX009 (ip), vehicle: Klucel (hydroxypropylcellulose) (HPC)
[16] = dose: 100.0 mg/kg/injection, schedule: Q01DX009 (ip), vehicle: saline with Tween-80
[17] = dose: 100.0 mg/kg/injection, schedule: Q01DX009 (ip), vehicle: saline
[18] = dose: 100.0 mg/kg/injection, schedule: Q04DX003 (ip), vehicle: saline
[19] = dose: 200.0 mg/kg/injection, schedule: Q04DX003 (ip), vehicle: saline
[20] = dose: 400.0 mg/kg/injection, schedule: Q04DX003 (ip), vehicle: saline
[21] = dose: 400.0 mg/kg/injection, schedule: Q04DX003 (ip), vehicle: saline with Tween-80
[22] = dose: 100.0 mg/kg/injection, schedule: Q04DX002 (ip), vehicle: Klucel (hydroxypropylcellulose) (HPC)
[23] = dose: 200.0 mg/kg/injection, schedule: Q04DX002 (ip), vehicle: Klucel (hydroxypropylcellulose) (HPC)
[24] = dose: 400.0 mg/kg/injection, schedule: Q04DX002 (ip), vehicle: Klucel (hydroxypropylcellulose) (HPC)

Measured: T/C

COC1/C=C/OC2(C)Oc3c(C)c(O)c4c(O)c(c(/C=N/NC5CCCCCCCCCCCCCC5)c(O)c4c3C2=O)NC(=O)/C(C)=C\C=C\C(C)C(O)C(C)C(O)C(C)C(OC(C)=O)C1C (centres undefined)
inactive: dose: 100.0 mg/kg/injection, schedule: Q01DX003 (ip), vehicle: saline with Tween-80 95 % of control | dose: 200.0 mg/kg/injection, schedule: Q01DX003 (ip), vehicle: saline with Tween-80 95 % of control | dose: 400.0 mg/kg/injection, schedule: Q01DX003 (ip), vehicle: saline with Tween-80 102 % of control

O=Nc1c(S(=O)(=O)O)cc2cc(S(=O)(=O)O)cc(O)c2c1O.[Cu+2]
inactive: dose: 0.16 mg/kg/injection, schedule: Q01DX009 (ip), vehicle: saline 95 % of control | dose: 0.31 mg/kg/injection, schedule: Q01DX009 (ip), vehicle: saline 103 % of control | dose: 0.63 mg/kg/injection, schedule: Q01DX009 (ip), vehicle: saline 92 % of control | [1] 102 % of control | [2] 102 % of control | [3] 94 % of control

CC(C)C1=CC2=CCC3C(C)(CN)CCCC3(C)C2CC1CCN (centres undefined)
inactive: [1] 100 % of control | [2] 108 % of control | dose: 5.0 mg/kg/injection, schedule: Q04DX003 (ip), vehicle: saline with Tween-80 96 % of control | [3] 101 % of control

CCC[CH2][Sn]([Cl])([CH2]CCC)[CH2]CCC
inactive: dose: 2.0 mg/kg/injection, schedule: Q01DX009 (ip), vehicle: saline 94 % of control | dose: 2.0 mg/kg/injection, schedule: Q04DX003 (ip), vehicle: saline 103 % of control | dose: 4.0 mg/kg/injection, schedule: Q01DX009 (ip), vehicle: saline 90 % of control | dose: 4.0 mg/kg/injection, schedule: Q04DX003 (ip), vehicle: saline 100 % of control | dose: 8.0 mg/kg/injection, schedule: Q01DX009 (ip), vehicle: saline 98 % of control | dose: 8.0 mg/kg/injection, schedule: Q04DX003 (ip), vehicle: saline 97 % of control

CCCCS(=O)(=O)CS(=O)(=O)CC
inactive: dose: 100.0 mg/kg/injection, schedule: Q01DX001 (ip), vehicle: saline with Tween-80 98 % of control | dose: 200.0 mg/kg/injection, schedule: Q01DX001 (ip), vehicle: saline with Tween-80 91 % of control | dose: 400.0 mg/kg/injection, schedule: Q01DX001 (ip), vehicle: saline with Tween-80 105 % of control

CCN(C(=O)c1ccc([N+](=O)[O-])cc1)C(c1ccccc1)P(=O)(c1ccccc1)c1ccccc1 (centres undefined)
inactive: [4] 89 % of control | [5] 95 % of control | [6] 88 % of control

Nc1ccc(NC(=O)C(=O)O)cc1
inactive: [7] 97 % of control | [8] 88 % of control

O=C1CC(C(=O)Nc2ccccc2)C(c2ccccc2)(c2ccccc2)O1 (centres undefined)
inactive: [9] 97 % of control | [10] 106 % of control | [11] 95 % of control

CCCSc1ncnc2c1ncn2COC(=O)NC
inactive: [12] 97 % of control | dose: 200.0 mg/kg/injection, schedule: Q01DX001 (ip), vehicle: saline 108 % of control | dose: 400.0 mg/kg/injection, schedule: Q01DX001 (ip), vehicle: saline 108 % of control

CCCCC/C=N\NC(N)=S
inactive: [9] 96 % of control

Cc1cc(C)c(C(=O)/C=C/c2ccccc2)c(C)c1
inactive: [13] 91 % of control | dose: 100.0 mg/kg/injection, schedule: Q04DX003 (ip), vehicle: Klucel (hydroxypropylcellulose) (HPC) 104 % of control | [14] 94 % of control | dose: 200.0 mg/kg/injection, schedule: Q04DX003 (ip), vehicle: Klucel (hydroxypropylcellulose) (HPC) 101 % of control | [15] 94 % of control | dose: 400.0 mg/kg/injection, schedule: Q04DX003 (ip), vehicle: Klucel (hydroxypropylcellulose) (HPC) 95 % of control

Brc1cscc1-c1cccc2ccccc12
inactive: [16] 86 % of control | [5] 86 % of control

COC(=O)C(C)NCc1ccccc1 (centres undefined)
inactive: [17] 95 % of control | [18] 107 % of control | dose: 200.0 mg/kg/injection, schedule: Q01DX009 (ip), vehicle: saline 100 % of control | [19] 107 % of control | dose: 400.0 mg/kg/injection, schedule: Q01DX009 (ip), vehicle: saline 100 % of control | [20] 102 % of control

c1ccc(Nc2ncc3cnccn23)cc1
inactive: dose: 25.0 mg/kg/injection, schedule: Q01DX009 (ip), vehicle: saline 96 % of control | dose: 50.0 mg/kg/injection, schedule: Q01DX009 (ip), vehicle: saline 90 % of control | [17] 97 % of control

CCCCCCCCN1C(=O)c2ccccc2S1(=O)=O
inactive: dose: 222.0 mg/kg/injection, schedule: Q01DX Z (ip), vehicle: saline 105 % of control | dose: 333.0 mg/kg/injection, schedule: Q01DX Z (ip), vehicle: saline 100 % of control | dose: 500.0 mg/kg/injection, schedule: Q01DX Z (ip), vehicle: saline 113 % of control

COC(C)CCC(=O)O.[Ag] (centres undefined)
inactive: dose: 6.25 mg/kg/injection, schedule: Q01DX009 (ip), vehicle: saline with Tween-80 95 % of control | dose: 12.5 mg/kg/injection, schedule: Q01DX009 (ip), vehicle: saline with Tween-80 91 % of control | dose: 12.5 mg/kg/injection, schedule: Q04DX003 (ip), vehicle: saline with Tween-80 91 % of control | dose: 25.0 mg/kg/injection, schedule: Q01DX009 (ip), vehicle: saline with Tween-80 95 % of control | dose: 25.0 mg/kg/injection, schedule: Q04DX003 (ip), vehicle: saline with Tween-80 96 % of control

COc1ccc2c(c1)c(=O)c(C(=O)O)cn2CCCOc1ccc([N+](=O)[O-])cc1
inactive: [13] 96 % of control | [18] 107 % of control | [14] 106 % of control | [19] 100 % of control | [15] 93 % of control | [20] 94 % of control

COC(=O)c1ccc(Cn2ccc(=O)n(Cc3ccc(C(=O)OC)cc3)c2=O)cc1
inactive: [7] 91 % of control | [8] 88 % of control | [21] 90 % of control

CC(=O)COc1ccccc1NC(C)=O
inactive: [16] 101 % of control | [5] 106 % of control | dose: 400.0 mg/kg/injection, schedule: Q01DX009 (ip), vehicle: saline with Tween-80 109 % of control

COc1ccccc1NC(=O)NCc1cccc2ccccc12
inactive: [22] 107 % of control | [23] 104 % of control | [24] 100 % of control

CN1CCN(P(c2ccccc2)N2CCN(C)CC2)CC1
inactive: [4] 107 % of control | dose: 200.0 mg/kg/injection, schedule: Q04DX002 (ip), vehicle: saline with Tween-80 103 % of control | [6] 95 % of control

O=Nc1c(-c2c[nH]c3ccccc23)[nH]c2ccccc12
inactive: dose: 50.0 mg/kg/injection, schedule: Q01DX001 (ip), vehicle: saline 106 % of control | [12] 102 % of control

OCC1OC(n2cc(Br)c3c(=S)nc[nH]c32)C(O)C1O (centres undefined)
inactive: [9] 104 % of control | [10] 110 % of control | [11] 106 % of control

Cc1ccc(S(=O)(=O)N/N=C/C(C)(C)C(C)C)cc1
inactive: [7] 108 % of control | [8] 97 % of control | [21] 98 % of control

COc1ccc2nc3cc(Cl)ccc3c(Cl)c2c1
inactive: dose: 50.0 mg/kg/injection, schedule: Q04DX003 (ip), vehicle: carboxymethylcellulose (CMC) 87 % of control | [9] 97 % of control | dose: 100.0 mg/kg/injection, schedule: Q04DX003 (ip), vehicle: carboxymethylcellulose (CMC) 92 % of control | [10] 90 % of control | dose: 200.0 mg/kg/injection, schedule: Q04DX003 (ip), vehicle: carboxymethylcellulose (CMC) 91 % of control | [11] 100 % of control

CN(Cc1cccc(Cl)c1)C(=O)NC(C)(C)C
inactive: [22] 100 % of control | [23] 96 % of control | [24] 100 % of control
